Source: patent publication US20230284620A1, “MIXTURES OF PYRIDAZINES AS HERBICIDAL COMPOSITIONS” (SYNGENTA CROP PROTECTION AG, priority 2020, published 2023)

How the values were obtained:
Test in all cases: Post-emergence glasshouse herbicide test, visual phytotoxicity
Type in all cases: in vivo
Settings in all cases: 13 days
[1] = test system: Ipomoea hederacea (IPOHE)
Protocol: (§1) Seeds of Setaria faberi (SETFA), Echinochloa crus-galli (ECHCG), Digitaria sanguinalis (DIGSA), Lolium perenne (LOLPE), Alopecurus myosuroides (ALOMY), Chenopodium album (CHEAL), Ipomoea hederacea (IPOHE), Stellaria media (STEME), Abutilon threophrasti (ABUTH) and Amaranthus retroflexus (AMARE) were sown in standard sterilised soil in pots. After cultivation for 8 days under controlled conditions in a glasshouse (at 24/19° C., day/night; 16 hours light; no humidity control), the plants were sprayed at 500 l/Ha with an aqueous spray solution derived from the formulation of the technical active ingredients in a small amount of acetone and a solvent and emulsifier mixture referred to as IF50 (11.12% Emulsogen EL360 TM+44.44% N-methylpyrrolidone+44.44% Dowanol DPM glycol ether), to create a 50 g/l solution which was then diluted using 0.2% Genapol X080 (CAS Number: 9043-30-5) as diluent to give the desired final dose of test compound.
(§2) Where active ingredients were applied as mixtures, aqueous spray solutions were prepared as above, containing both active ingredients.
(§3) The test plants were then grown under controlled conditions in a glasshouse (at 24/18° C., day/night; 15 hours light; 50% humidity) and watered twice daily. After 13 days, the test was evaluated visually for percentage phytotoxicity to the plants (where 100=total damage to plant; 0=no damage to plant; and NC=not captured) when compared to control untreated plants. Two to four replicates were applied for each treatment in a randomised block test design.
(§4) 22., E=X+Y−(X*Y/100), where • X=average percent phytotoxicity of herbicide A when applied at a certain rate • Y=average percent phytotoxicity using herbicide B when applied at a certain rate • E=the expected effect of the mixture of herbicides A and B as calculated from the Colby formula.

Setaria faberi (SETFA) = test system: Setaria faberi (SETFA)
Protocol: as §1, §2, §3, §4

[2] = test system: Amaranthus retroflexus (AMARE)
Protocol: as §1, §2, §3, §4

[3] = test system: Chenopodium album (CHEAL)
Protocol: as §1, §2, §3, §4

Lolium perenne (LOLPE) = test system: Lolium perenne (LOLPE)
Protocol: as §1, §2, §3, §4

[4] = test system: Echinochloa crus-galli (ECHCG)
Protocol: as §1, §2, §3, §4

Stellaria media (STEME) = test system: Stellaria media (STEME)
Protocol: as §1, §2, §3, §4

[5] = test system: Alopecurus myosuroides (ALOMY)
Protocol: as §1, §2, §3, §4

[6] = test system: Digitaria sanguinalis (DIGSA)
Protocol: as §1, §2, §3, §4

[7] = test system: Abutilon threophrasti (ABUTH)
Protocol: as §1, §2, §3, §4

Structure (SMILES): COc1c(Cl)ccc(-c2nc(C(=O)OCc3ccccc3)c(Cl)c(N)c2F)c1F [B-I]
- percentage phytotoxicity IPOHE ([1]; 0.625 g/ha): 53%
- percentage phytotoxicity IPOHE ([1]; 1.25 g/ha): 58%
- percentage phytotoxicity IPOHE ([1]; 2.5 g/ha): 58%
- percentage phytotoxicity IPOHE ([1]; 5 g/ha): 63%
- percentage phytotoxicity IPOHE ([1]; 10 g/ha): 75%
- percentage phytotoxicity SETFA (Setaria faberi (SETFA); 0.625 g/ha): 0%
- percentage phytotoxicity SETFA (Setaria faberi (SETFA); 1.25 g/ha): 5%
- percentage phytotoxicity SETFA (Setaria faberi (SETFA); 2.5 g/ha): 0%
- percentage phytotoxicity SETFA (Setaria faberi (SETFA); 5 g/ha): 0%
- percentage phytotoxicity SETFA (Setaria faberi (SETFA); 10 g/ha): 5%
- percentage phytotoxicity AMARE ([2]; 0.625 g/ha): 63%
- percentage phytotoxicity AMARE ([2]; 1.25 g/ha): 70%
- percentage phytotoxicity AMARE ([2]; 2.5 g/ha): 80%
- percentage phytotoxicity AMARE ([2]; 5 g/ha): 80%
- percentage phytotoxicity AMARE ([2]; 10 g/ha): 93%
- percentage phytotoxicity CHEAL ([3]; 0.625 g/ha): 85%
- percentage phytotoxicity CHEAL ([3]; 1.25 g/ha): 73%
- percentage phytotoxicity CHEAL ([3]; 2.5 g/ha): 83%
- percentage phytotoxicity CHEAL ([3]; 5 g/ha): 91%
- percentage phytotoxicity CHEAL ([3]; 10 g/ha): 93%
- percentage phytotoxicity LOLPE (Lolium perenne (LOLPE); 0.625 g/ha): 0%
- percentage phytotoxicity LOLPE (Lolium perenne (LOLPE); 1.25 g/ha): 10%
- percentage phytotoxicity LOLPE (Lolium perenne (LOLPE); 2.5 g/ha): 0%
- percentage phytotoxicity LOLPE (Lolium perenne (LOLPE); 5 g/ha): 0%
- percentage phytotoxicity LOLPE (Lolium perenne (LOLPE); 10 g/ha): 0%
- percentage phytotoxicity ECHCG ([4]; 0.625 g/ha): 0%
- percentage phytotoxicity ECHCG ([4]; 1.25 g/ha): 8%
- percentage phytotoxicity ECHCG ([4]; 2.5 g/ha): 0%
- percentage phytotoxicity ECHCG ([4]; 5 g/ha): 0%
- percentage phytotoxicity ECHCG ([4]; 10 g/ha): 10%
- percentage phytotoxicity STEME (Stellaria media (STEME); 0.625 g/ha): 63%
- percentage phytotoxicity STEME (Stellaria media (STEME); 1.25 g/ha): 65%
- percentage phytotoxicity STEME (Stellaria media (STEME); 2.5 g/ha): 80%
- percentage phytotoxicity STEME (Stellaria media (STEME); 5 g/ha): 85%
- percentage phytotoxicity STEME (Stellaria media (STEME); 10 g/ha): 90%
- percentage phytotoxicity ALOMY ([5]; 0.625 g/ha): 0%
- percentage phytotoxicity ALOMY ([5]; 1.25 g/ha): 0%
- percentage phytotoxicity ALOMY ([5]; 2.5 g/ha): 0%
- percentage phytotoxicity ALOMY ([5]; 5 g/ha): 0%
- percentage phytotoxicity ALOMY ([5]; 10 g/ha): 5%
- percentage phytotoxicity DIGSA ([6]; 0.625 g/ha): 0%
- percentage phytotoxicity DIGSA ([6]; 1.25 g/ha): 8%
- percentage phytotoxicity DIGSA ([6]; 2.5 g/ha): 0%
- percentage phytotoxicity DIGSA ([6]; 5 g/ha): 0%
- percentage phytotoxicity DIGSA ([6]; 10 g/ha): 0%
- percentage phytotoxicity ABUTH ([7]; 0.625 g/ha): 78%
- percentage phytotoxicity ABUTH ([7]; 1.25 g/ha): 80%
- percentage phytotoxicity ABUTH ([7]; 2.5 g/ha): 83%
- percentage phytotoxicity ABUTH ([7]; 5 g/ha): 90%
- percentage phytotoxicity ABUTH ([7]; 10 g/ha): 85%

Structure (SMILES): Nc1c(F)c(-c2ccc3cc[nH]c3c2F)nc(C(=O)O)c1Cl [B-VI]
- percentage phytotoxicity IPOHE ([1]; 0.625 g/ha): 25%
- percentage phytotoxicity IPOHE ([1]; 1.25 g/ha): 35%
- percentage phytotoxicity IPOHE ([1]; 2.5 g/ha): 38%
- percentage phytotoxicity IPOHE ([1]; 5 g/ha): 48%
- percentage phytotoxicity IPOHE ([1]; 10 g/ha): 65%
- percentage phytotoxicity SETFA (Setaria faberi (SETFA); 0.625 g/ha): 0%
- percentage phytotoxicity SETFA (Setaria faberi (SETFA); 1.25 g/ha): 0%
- percentage phytotoxicity SETFA (Setaria faberi (SETFA); 2.5 g/ha): 5%
- percentage phytotoxicity SETFA (Setaria faberi (SETFA); 5 g/ha): 2%
- percentage phytotoxicity SETFA (Setaria faberi (SETFA); 10 g/ha): 40%
- percentage phytotoxicity AMARE ([2]; 0.625 g/ha): 83%
- percentage phytotoxicity AMARE ([2]; 1.25 g/ha): 83%
- percentage phytotoxicity AMARE ([2]; 2.5 g/ha): 90%
- percentage phytotoxicity AMARE ([2]; 5 g/ha): 98%
- percentage phytotoxicity AMARE ([2]; 10 g/ha): 100%
- percentage phytotoxicity CHEAL ([3]; 0.625 g/ha): 75%
- percentage phytotoxicity CHEAL ([3]; 1.25 g/ha): 80%
- percentage phytotoxicity CHEAL ([3]; 2.5 g/ha): 83%
- percentage phytotoxicity CHEAL ([3]; 5 g/ha): 94%
- percentage phytotoxicity CHEAL ([3]; 10 g/ha): 98%
- percentage phytotoxicity LOLPE (Lolium perenne (LOLPE); 0.625 g/ha): 0%
- percentage phytotoxicity LOLPE (Lolium perenne (LOLPE); 1.25 g/ha): 0%
- percentage phytotoxicity LOLPE (Lolium perenne (LOLPE); 2.5 g/ha): 5%
- percentage phytotoxicity LOLPE (Lolium perenne (LOLPE); 5 g/ha): 5%
- percentage phytotoxicity LOLPE (Lolium perenne (LOLPE); 10 g/ha): 25%
- percentage phytotoxicity ECHCG ([4]; 0.625 g/ha): 0%
- percentage phytotoxicity ECHCG ([4]; 1.25 g/ha): 0%
- percentage phytotoxicity ECHCG ([4]; 2.5 g/ha): 25%
- percentage phytotoxicity ECHCG ([4]; 5 g/ha): 10%
- percentage phytotoxicity ECHCG ([4]; 10 g/ha): 53%
- percentage phytotoxicity STEME (Stellaria media (STEME); 0.625 g/ha): 65%
- percentage phytotoxicity STEME (Stellaria media (STEME); 1.25 g/ha): 75%
- percentage phytotoxicity STEME (Stellaria media (STEME); 2.5 g/ha): 90%
- percentage phytotoxicity STEME (Stellaria media (STEME); 5 g/ha): 93%
- percentage phytotoxicity STEME (Stellaria media (STEME); 10 g/ha): 99%
- percentage phytotoxicity ALOMY ([5]; 0.625 g/ha): 0%
- percentage phytotoxicity ALOMY ([5]; 1.25 g/ha): 0%
- percentage phytotoxicity ALOMY ([5]; 2.5 g/ha): 10%
- percentage phytotoxicity ALOMY ([5]; 5 g/ha): 8%
- percentage phytotoxicity ALOMY ([5]; 10 g/ha): 25%
- percentage phytotoxicity DIGSA ([6]; 0.625 g/ha): 0%
- percentage phytotoxicity DIGSA ([6]; 1.25 g/ha): 0%
- percentage phytotoxicity DIGSA ([6]; 2.5 g/ha): 13%
- percentage phytotoxicity DIGSA ([6]; 5 g/ha): 15%
- percentage phytotoxicity DIGSA ([6]; 10 g/ha): 43%
- percentage phytotoxicity ABUTH ([7]; 0.625 g/ha): 48%
- percentage phytotoxicity ABUTH ([7]; 1.25 g/ha): 70%
- percentage phytotoxicity ABUTH ([7]; 2.5 g/ha): 78%
- percentage phytotoxicity ABUTH ([7]; 5 g/ha): 80%
- percentage phytotoxicity ABUTH ([7]; 10 g/ha): 93%

Structure (SMILES): CCOC(=O)COc1ncccc1Oc1cc(-n2c(=O)cc(C(F)(F)F)n(C)c2=O)c(F)cc1Cl [B-V]
- percentage phytotoxicity IPOHE ([1]; 0.08 g/ha): 23%
- percentage phytotoxicity IPOHE ([1]; 0.16 g/ha): 50%
- percentage phytotoxicity IPOHE ([1]; 0.32 g/ha): 55%
- percentage phytotoxicity IPOHE ([1]; 0.625 g/ha): 93%
- percentage phytotoxicity IPOHE ([1]; 1.25 g/ha): 88%
- percentage phytotoxicity SETFA (Setaria faberi (SETFA); 0.08 g/ha): 0%
- percentage phytotoxicity SETFA (Setaria faberi (SETFA); 0.16 g/ha): 0%
- percentage phytotoxicity SETFA (Setaria faberi (SETFA); 0.32 g/ha): 20%
- percentage phytotoxicity SETFA (Setaria faberi (SETFA); 0.625 g/ha): 20%
- percentage phytotoxicity SETFA (Setaria faberi (SETFA); 1.25 g/ha): 33%
- percentage phytotoxicity AMARE ([2]; 0.08 g/ha): 35%
- percentage phytotoxicity AMARE ([2]; 0.16 g/ha): 100%
- percentage phytotoxicity AMARE ([2]; 0.32 g/ha): 100%
- percentage phytotoxicity AMARE ([2]; 0.625 g/ha): 100%
- percentage phytotoxicity AMARE ([2]; 1.25 g/ha): 100%
- percentage phytotoxicity CHEAL ([3]; 0.08 g/ha): 8%
- percentage phytotoxicity CHEAL ([3]; 0.16 g/ha): 63%
- percentage phytotoxicity CHEAL ([3]; 0.32 g/ha): 78%
- percentage phytotoxicity CHEAL ([3]; 0.625 g/ha): 80%
- percentage phytotoxicity CHEAL ([3]; 1.25 g/ha): 95%
- percentage phytotoxicity LOLPE (Lolium perenne (LOLPE); 0.08 g/ha): 0%
- percentage phytotoxicity LOLPE (Lolium perenne (LOLPE); 0.16 g/ha): 5%
- percentage phytotoxicity LOLPE (Lolium perenne (LOLPE); 0.32 g/ha): 38%
- percentage phytotoxicity LOLPE (Lolium perenne (LOLPE); 0.625 g/ha): 30%
- percentage phytotoxicity LOLPE (Lolium perenne (LOLPE); 1.25 g/ha): 60%
- percentage phytotoxicity ECHCG ([4]; 0.08 g/ha): 0%
- percentage phytotoxicity ECHCG ([4]; 0.16 g/ha): 0%
- percentage phytotoxicity ECHCG ([4]; 0.32 g/ha): 10%
- percentage phytotoxicity ECHCG ([4]; 0.625 g/ha): 8%
- percentage phytotoxicity ECHCG ([4]; 1.25 g/ha): 20%
- percentage phytotoxicity STEME (Stellaria media (STEME); 0.08 g/ha): 15%
- percentage phytotoxicity STEME (Stellaria media (STEME); 0.16 g/ha): 45%
- percentage phytotoxicity STEME (Stellaria media (STEME); 0.32 g/ha): 85%
- percentage phytotoxicity STEME (Stellaria media (STEME); 0.625 g/ha): 95%
- percentage phytotoxicity STEME (Stellaria media (STEME); 1.25 g/ha): 100%
- percentage phytotoxicity ALOMY ([5]; 0.08 g/ha): 0%
- percentage phytotoxicity ALOMY ([5]; 0.16 g/ha): 5%
- percentage phytotoxicity ALOMY ([5]; 0.32 g/ha): 50%
- percentage phytotoxicity ALOMY ([5]; 0.625 g/ha): 55%
- percentage phytotoxicity ALOMY ([5]; 1.25 g/ha): 78%
- percentage phytotoxicity DIGSA ([6]; 0.08 g/ha): 0%
- percentage phytotoxicity DIGSA ([6]; 0.16 g/ha): 13%
- percentage phytotoxicity DIGSA ([6]; 0.32 g/ha): 40%
- percentage phytotoxicity DIGSA ([6]; 0.625 g/ha): 50%
- percentage phytotoxicity DIGSA ([6]; 1.25 g/ha): 68%
- percentage phytotoxicity ABUTH ([7]; 0.08 g/ha): 23%
- percentage phytotoxicity ABUTH ([7]; 0.16 g/ha): 75%
- percentage phytotoxicity ABUTH ([7]; 0.32 g/ha): 85%
- percentage phytotoxicity ABUTH ([7]; 0.625 g/ha): 100%
- percentage phytotoxicity ABUTH ([7]; 1.25 g/ha): 100%
